Results published in ChEMBL document CHEMBL1201862, “PubChem BioAssay data set” (2004).
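A five-concentration, 48-hour dose response in 96-well plates underlies each endpoint, interpolated linearly between surrounding concentrations. The concentration for 50% growth inhibition is given as GI50.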 The source made the active and inactive calls. Rule as the data show it: active = GI50 up to about 1.1 µM and inactive = higher.

What was measured:
Test in all cases: NCI-60 cell line screen, 48 h
[1] = test system: CCRF-CEM
[2] = test system: Malme-3M
[3] = test system: MOLT-4
[4] = test system: DU-145
[5] = test system: NCI-H226
[6] = test system: A498
[7] = test system: SK-MEL-2
[8] = test system: HOP-92
[9] = test system: NCI-H23
[10] = test system: 786-0
[11] = test system: U-251
[12] = test system: UO-31
[13] = test system: SF-268
[14] = test system: MCF7
[15] = test system: MDA-MB-231
[16] = test system: TK-10
[17] = test system: HOP-62
[18] = test system: MDA-N
[19] = test system: SR

SMILES	GI50 [1]	GI50 [2]	GI50 [3]	GI50 [4]	GI50 [5]	GI50 [6]	GI50 [7]	GI50 [8]	GI50 [9]	GI50 [10]	GI50 [11]	GI50 [12]	GI50 [13]	GI50 [14]	GI50 [15]	GI50 [16]	GI50 [17]	GI50 [18]	GI50 [19]
Cc1[nH]c2ncn3ncnc3c2c1Cc1ccccc1	> 100 µM (inactive)	> 100 µM (inactive)	> 100 µM (inactive)	> 100 µM (inactive)	> 100 µM (inactive)	> 100 µM (inactive)	> 100 µM (inactive)	54.1 µM (inactive)	91.6 µM (inactive)	> 100 µM (inactive)	> 100 µM (inactive)	> 100 µM (inactive)	> 100 µM (inactive)	> 100 µM (inactive)	> 100 µM (inactive)	> 100 µM (inactive)	> 100 µM (inactive)	> 100 µM (inactive)	–
S=C1NC2=C(COc3ccccc32)C(c2ccc(Cl)cc2)N1 (stereo not drawn)	21.3 µM (inactive)	–	12.8 µM (inactive)	19.9 µM (inactive)	17.6 µM (inactive)	18.1 µM (inactive)	15.3 µM (inactive)	> 10 µM (inactive)	21.7 µM (inactive)	19.2 µM (inactive)	> 10 µM (inactive)	18.4 µM (inactive)	17.6 µM (inactive)	19.1 µM (inactive)	17.4 µM (inactive)	–	17.1 µM (inactive)	16.4 µM (inactive)	–
Cc1ccc(N/N=C/C2=CC(C)(C)C(C#N)(C#N)C(O)=C2C#N)cc1	24.5 µM (inactive)	> 100 µM (inactive)	30.5 µM (inactive)	66.7 µM (inactive)	> 100 µM (inactive)	–	–	5.89 µM (inactive)	39.4 µM (inactive)	66.4 µM (inactive)	–	37.7 µM (inactive)	49 µM (inactive)	> 100 µM (inactive)	44.6 µM (inactive)	99.5 µM (inactive)	78.3 µM (inactive)	54.8 µM (inactive)	14.3 µM (inactive)
CCCCOC(=O)C(O)Cc1ccoc1 (stereo not drawn)	> 100 µM (inactive)	> 100 µM (inactive)	> 100 µM (inactive)	> 100 µM (inactive)	> 100 µM (inactive)	> 100 µM (inactive)	> 100 µM (inactive)	–	> 100 µM (inactive)	> 100 µM (inactive)	> 100 µM (inactive)	> 100 µM (inactive)	> 100 µM (inactive)	> 100 µM (inactive)	> 100 µM (inactive)	> 100 µM (inactive)	> 100 µM (inactive)	> 100 µM (inactive)	–
O=C1/C(=C/c2ccc([N+](=O)[O-])cc2)Oc2cc(O)ccc21	31 µM (inactive)	–	14.6 µM (inactive)	33.7 µM (inactive)	13.2 µM (inactive)	–	–	–	42.1 µM (inactive)	22.2 µM (inactive)	28.1 µM (inactive)	17.7 µM (inactive)	61 µM (inactive)	27.2 µM (inactive)	26.5 µM (inactive)	27.4 µM (inactive)	31.2 µM (inactive)	23.2 µM (inactive)	16.9 µM (inactive)
CC(=O)OCC1OC(n2c(C)c(/N=N/c3ccc(Cl)cc3)c(C)c(C#N)c2=S)C(OC(C)=O)C(OC(C)=O)C1OC(C)=O (stereo not drawn)	> 100 µM (inactive)	> 100 µM (inactive)	> 100 µM (inactive)	73.3 µM (inactive)	–	–	34.2 µM (inactive)	0.205 µM (active)	> 100 µM (inactive)	19.9 µM (inactive)	28.1 µM (inactive)	> 100 µM (inactive)	27.9 µM (inactive)	> 100 µM (inactive)	65.2 µM (inactive)	40.5 µM (inactive)	22.8 µM (inactive)	> 100 µM (inactive)	> 100 µM (inactive)
CC(O)CCCCC(O)CCC[C@H](O)[C@H]1CCC([C@H]2CCC([C@@H](O)CCCCCCCCCCCCC3=C[C@H](C)OC3=O)O2)O1 (stereo partly drawn)	9.38 µM (inactive)	–	3.9 µM (inactive)	12 µM (inactive)	9.59 µM (inactive)	–	8.77 µM (inactive)	11.4 µM (inactive)	8.65 µM (inactive)	14.4 µM (inactive)	10.8 µM (inactive)	9.44 µM (inactive)	11.6 µM (inactive)	5.25 µM (inactive)	10.4 µM (inactive)	9.48 µM (inactive)	10.6 µM (inactive)	10.6 µM (inactive)	0.0075 µM (active)
COc1cc(C2C3=C(COC3=O)Oc3cc4c(cc32)OCO4)cc(OC)c1O (stereo not drawn)	0.0134 µM (active)	< 0.01 µM (active)	0.0175 µM (active)	0.0157 µM (active)	< 0.0118 µM (active)	–	0.0101 µM (active)	–	0.465 µM (active)	< 0.0152 µM (active)	< 0.0134 µM (active)	0.0592 µM (active)	0.226 µM (active)	< 0.01 µM (active)	< 0.0246 µM (active)	0.589 µM (active)	< 0.0135 µM (active)	< 0.01 µM (active)	< 0.01 µM (active)
